Results from patent US20080171760A1, “SPIROPIPERIDINE GLYCINAMIDE DERIVATIVES” (priority 2007, published 2008).

Biological target: T1, human V1a receptor (Homo sapiens, UniProt P37288)
T1 construct: expressed in transfected cells; host or cells: HEK293 cells, transiently transfected; cell membranes
Test: human V1a receptor binding study (3H-Vasopressin, SPA beads)
Conditions: membranes of HEK293 cells transiently transfected with human V1a receptor, Ki calculated using the Cheng-Prussoff equation, read-out: pKi hV1a (converted)
Protocol: The human V1a receptor was cloned by RT-PCR from total human liver RNA. The coding sequence was subcloned in an expression vector after sequencing to confirm the identity of the amplified sequence. […] Cell membranes were prepared from HEK293 cells transiently transfected with the expression vector and grown in 20 liter fermenters with the following protocol.
50 g of cells were resuspended in 30 ml freshly prepared ice cold Lysis buffer (50 mM HEPES, 1 mM EDTA, 10 mM MgCl2 adjusted to pH=7.4+complete cocktail of protease inhibitor (Roche Diagnostics)), homogenized with Polytron for 1 min, and sonicated on ice for 2×2 minutes at 80% intensity (Vibracell sonicator). The preparation was centrifuged 20 min at 500 g at 4° C., the pellet was discarded and the supernatant centrifuged 1 hour at 43,000 g at 4° C. (19,000 rpm). The pellet was resuspended in 12.5 ml Lysis buffer+12.5 ml Sucrose 20% and homogenized using a Polytron for 1-2 min. The protein concentration was determined by the Bradford method and aliquots are stored at −80° C. until use. For binding studies 60 mg Yttrium silicate SPA beads (Amersham) were mixed with an aliquot of membrane in binding buffer (50 mM Tris, 120 mM NaCl, 5 mM KCl, 2 mM CaCl2, 10 mM MgCl2) for 15 minutes with mixing. 50 ul of bead/membrane mixture was then added to each well of a 96 well plate, followed by 50 ul of 4 nM 3H-Vasopressin (American Radiolabeled Chemicals). For total binding measurement 100 ul of binding buffer were added to the respective wells, for non-specific binding 100 ul of 8.4 mM cold vasopressin and for compound testing 100 ul of a serial dilution of each compound in 2% DMSO. The plate was incubated 1 h at room temperature, centrifuged 1 min at 1000 g and counted on a Packard Top-Count. Non-specific binding counts were subtracted from each well and data was normalized to the maximum specific binding set at 100%. To calculate an IC 50 the curve was fitted using a non-linear regression model (XLfit) and the Ki is calculated using the Cheng-Prussoff equation.

T1 sequence (P37288 whole entry): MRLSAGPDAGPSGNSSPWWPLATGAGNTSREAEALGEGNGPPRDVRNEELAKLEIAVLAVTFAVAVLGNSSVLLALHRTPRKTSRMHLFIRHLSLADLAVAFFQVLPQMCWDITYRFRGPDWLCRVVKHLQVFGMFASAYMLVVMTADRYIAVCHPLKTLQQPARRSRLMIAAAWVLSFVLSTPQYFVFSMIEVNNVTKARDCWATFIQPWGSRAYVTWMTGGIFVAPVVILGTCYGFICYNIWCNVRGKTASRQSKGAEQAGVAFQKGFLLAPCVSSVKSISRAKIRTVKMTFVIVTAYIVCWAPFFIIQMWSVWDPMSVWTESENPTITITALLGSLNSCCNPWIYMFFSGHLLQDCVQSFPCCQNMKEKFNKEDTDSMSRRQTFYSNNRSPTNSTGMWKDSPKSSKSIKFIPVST

| Structure (SMILES) | Ki [µM] |
| --- | --- |
| O=C(CNC(c1ccccc1)c1ccc(Cl)cc1)N1CCC2(CC1)OCc1ccccc12 (racemic) [Example 2, (RS)—N-[(4-Chlorophenyl)(phenyl)methyl]-2-oxo-2-(1′H,3H-spiro[2-benzofuran-1,4′-piperidin]-1′-yl)ethanamine] | 0.00912 |
| O=C(CNC(c1ccccc1)c1cccc(Cl)c1)N1CCC2(CC1)OCc1ccccc12 (racemic) [Example 8, (RS)—N-[(3-Chlorophenyl)(phenyl)methyl]-2-oxo-2-(1′H,3H-spiro[2-benzofuran-1,4′-piperidin]-1′-yl)ethanamine] | 0.0148 |
| O=C(CNC(c1ccccc1)c1ccc(Cl)c(Cl)c1)N1CCC2(CC1)OCc1ccccc12 (racemic) [Example 9, (RS)—N-[(3,4-Dichlorophenyl)(phenyl)methyl]-2-oxo-2-(1′H,3H-spiro[2-benzofuran-1,4′-piperidin]-1′-yl)ethanamine] | 0.0145 |
| O=C(CNC(c1ccccc1)c1cccc(C(F)(F)F)c1)N1CCC2(CC1)OCc1ccccc12 (racemic) [Example 12, (RS)-2-Oxo-N-{phenyl[3-(trifluoromethyl)phenyl]methyl}-2-(1′H,3H-spiro[2-benzofuran-1,4′-piperidin]-1′-yl)ethanamine] | 0.0302 |
| O=C(CNC(c1ccc(F)cc1)c1cccc(C(F)(F)F)c1)N1CCC2(CC1)OCc1ccccc12 (racemic) [Example 13, (RS)—N-{(4-Fluorophenyl)[3-(trifluoromethyl)phenyl]methyl}-2-oxo-2-(1′H,3H-spiro[2-benzofuran-1,4′-piperidin]-1′-yl)ethanamine] | 0.0295 |
| O=C(CNC(c1ccccc1)c1ccc(C(F)(F)F)cc1)N1CCC2(CC1)OCc1ccccc12 (racemic) [Example 18, (RS)-2-Oxo-N-{phenyl[4-(trifluoromethyl)phenyl]methyl}-2-(1′H,3H-spiro[2-benzofuran-1,4′-piperidin]-1′-yl)ethanamine] | 0.0209 |
| O=C(CNC(c1ccccc1)c1cccs1)N1CCC2(CC1)OCc1ccccc12 (racemic) [Example 20, (RS)-2-Oxo-N-[phenyl(2-thienyl)methyl]-2-(1′H,3H-spiro[2-benzofuran-1,4′-piperidin]-1′-yl)ethanamine] | 0.00912 |
| O=C(CNC(c1ccccc1)c1ccccn1)N1CCC2(CC1)OCc1ccccc12 (racemic) [Example 27, (RS)-2-Oxo-N-[phenyl(pyridin-2-yl)methyl]-2-(1′H,3H-spiro[2-benzofuran-1,4′-piperidin]-1′-yl)ethanamine] | 0.0182 |
| O=C(CNC(c1ccc(F)cc1)c1cccs1)N1CCC2(CC1)OCc1ccccc12 (racemic) [Example 29, (RS)—N-[(4-Fluorophenyl)(2-thienyl)methyl]-2-oxo-2-(1′H,3H-spiro[2-benzofuran-1,4′-piperidin]-1′-yl)ethanamine] | 0.0158 |
| Cc1n[nH]c(C)c1C(NCC(=O)N1CCC2(CC1)OCc1ccccc12)c1ccccc1 (racemic) [Example 30, (RS)—N-[(3,5-Dimethyl-1H-pyrazol-4-yl)(phenyl)methyl]-2-oxo-2-(1′H,3H-spiro[2-benzofuran-1,4′-piperidin]-1′-yl)ethanamine] | 0.0234 |
| Cc1cccc(C(NCC(=O)N2CCC3(CC2)OCc2ccccc23)c2ccccc2)c1 (racemic) [Example 34, (RS)—N-[(3-Methylphenyl)(phenyl)methyl]-2-oxo-2-(1′H,3H-spiro[2-benzofuran-1,4′-piperidin]-1′-yl)ethanamine] | 0.0186 |
| O=C(CNC(c1ccccc1)c1cc(Cl)ccc1O)N1CCC2(CC1)OCc1ccccc12 (racemic) [Example 37, (RS)-4-Chloro-2-[{[2-oxo-2-(1′H,3H-spiro[2-benzofuran-1,4′-piperidin]-1′yl)ethyl]amino}(phenyl)methyl]phenol] | 0.0145 |
| C[C@](O)(c1ccccn1)[C@H](NCC(=O)N1CCC2(CC1)OCc1ccccc12)c1ccc(Cl)cc1 (racemic) [Example 49, (1RS,2RS)-1-(4-Chlorophenyl)-1-{[2-oxo-2-(1′H,3H-spiro[2-benzofuran-1,4′-piperidin]-1′-yl)ethyl]amino}-2-pyridin-2-yl-propan-2-ol] | 0.0186 |
| O=C(CNC(c1cccc(Cl)c1)c1ncco1)N1CCC2(CC1)OCc1ccccc12 (racemic) [Example 68, (RS)—N-[(3-Chlorophenyl) (1,3-oxazol-2-yl)methyl]-2-oxo-2-(1′H,3H-spiro [2-benzofuran-1,4′-piperidin]-1′-yl)ethanamine] | 0.00851 |
| O=C(CN[C@@H](c1ccccc1)c1ccc(Cl)cc1)N1CCC2(CC1)OCc1ccccc12 (single isomer, unassigned) [Example 4, N-[(+)-(4-chlorophenyl)(phenyl)methyl]-2-oxo-2-(1′H,3H-spiro[2-benzofuran-1,4′-piperidin]-1′-yl)ethanamine] | 0.0204 |
| O=C(CNC(c1ccccc1)c1ccccc1)N1CCC2(CC1)OCc1ccccc12 [Example 6, N-(Diphenylmethyl)-2-oxo-2-(1′H,3H-spiro[2-benzofuran-1,4′-piperidin]-1′-yl)ethanamine] | 0.0117 |
| O=C(Nc1ccc(Cl)cc1)[C@H](NCC(=O)N1CCC2(CC1)OCc1ccccc12)c1ccccc1 [Example 31, (2R)—N-(4-Chlorophenyl)-2-{[2-oxo-2-(1′H,3H-spiro[2-benzofuran-1,4′-piperidin]-1′-yl)ethyl]amino}-2-phenylacetamide] | 0.0427 |
| O=C(CN[C@H](c1ccc(Cl)cc1)[C@@H](O)c1ccc(N2CCOCC2)cc1)N1CCC2(CC1)OCc1ccccc12 [Example 46] | 0.024 |
| CC(O)(c1ccncc1)C(NCC(=O)N1CCC2(CC1)OCc1ccccc12)c1ccc(Cl)cc1 (stereo not shown) [Example 52, 1-(4-Chlorophenyl)-1-{[2-oxo-2-(1′H,3H-spiro[2-benzofuran-1,4-piperidin]-1′-yl)ethyl]amino}-2-pyridin-4-ylpropan-2-ol] | 0.0263 |
| O=C(CN[C@@H](C(=O)N1CC(O)C1)c1ccccc1)N1CCC2(CC1)OCc1ccccc12 [Example 71, 1-[(2R)-2-{[2-Oxo-2-(1′H,3H-spiro[2-benzofuran-1,4′-piperidin]-1′-yl)ethyl]amino}-2-phenylacetyl]azetidin-3-ol] | 0.0794 |
| O=C1OC2(CCN(C(=O)CNC(c3ccccc3)c3ccccc3)CC2)c2ccccc21 [Example 92, 1′-[N-(Diphenylmethyl)glycyl]-3H-spiro[2-benzofuran-1,4′-piperidin]-3-one] | 0.0427 |
| CN(CC(=O)N1CCC2(CC1)OCc1ccccc12)C(c1ccccc1)c1ccccc1 [Example 93, N-(Diphenylmethyl)-N-methyl-2-oxo-2-(1′H,3H-spiro[2-benzofuran-1,4′-piperidin]-1′-yl)ethanamine] | 0.0282 |
